Inhibition data for 51 compounds are collected here from article PMC8041284, “Tunable Methacrylamides for Covalent Ligand Directed Release Chemistry” (Journal of the American Chemical Society, 2021).

Molecules are shown by their SMILES.

This experiment concerns the target BTK (Homo sapiens, UniProt Q06187). Nature of the experiment: biochemical. To be noted: read-out: BTK inhibition (%), 0.75 uM BTK, […] probe 3l, 15 min preincubation.

Sequence of BTK (Q06187 402-655 limits assumed): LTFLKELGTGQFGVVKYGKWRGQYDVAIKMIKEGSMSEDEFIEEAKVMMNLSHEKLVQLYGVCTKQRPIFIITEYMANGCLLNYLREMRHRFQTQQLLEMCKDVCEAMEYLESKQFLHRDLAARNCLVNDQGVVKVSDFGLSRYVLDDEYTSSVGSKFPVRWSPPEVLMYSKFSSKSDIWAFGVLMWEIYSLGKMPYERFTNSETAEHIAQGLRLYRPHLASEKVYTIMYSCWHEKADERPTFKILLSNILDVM

In the case of `O=C(Nc1ccccc1-c1cn2c(CN3CC[C@@H](O)C3)csc2n1)c1ccc2ccccc2c1` [PCM-0215757], the inhibition at 10 µM is -1.5%. With `COc1cc2c(NC3CCN(C(C)C)CC3)nc(C3CCCCC3)nc2cc1OCCCN1CCCC1` [PCM-0215758] the figure was -10.8%; with `CCOC(=O)C1=C(C)NC(=S)NC1c1cccc(O)c1` (stereo not drawn) [PCM-0215759], -25.5%; with `C[C@H](NC(=O)CCC(F)(F)F)C(=O)N[C@@H]1C(=O)N(CCO)c2ncccc2-c2ccccc21` [PCM-0215760], 15.4%.

`O=C(O)[C@H](O)Cc1ccc(O)c(O)c1` [PCM-0215761]: the inhibition at 10 µM worked out at 7.7%. With `CNCCN(C)Cc1cn[nH]c1-c1ccc(OC2CC(OCCC3CCOCC3)C2)cc1` (stereo not drawn) [PCM-0215762] the figure was 11.6%; with `O=C1Nc2ccc(CN3C(=O)CSC3=O)cc2/C1=C/c1cc(CN2CCOCC2)c[nH]1` [PCM-0215763], -11%; with `N#Cc1ccc([C@H]2CCc3cncn32)c(F)c1` [PCM-0215764], 6.2%. With `COc1cn(-c2ccc(-n3cccn3)cc2F)nc(-c2ccnn2-c2ccccc2)c1=O` [PCM-0215765], the inhibition at 10 µM stood at 2.3%. In the case of `CC(N)=NCc1cccc(CN)c1` [PCM-0215766] it was 13.1%; in that of `CC(C)(O)CNc1ncc(-c2ccnc(Nc3ccncc3)n2)c(CC2CC2)n1` [PCM-0215768], 9.7%; in that of `CNc1ccc([N+](=O)[O-])c(Nc2ccc3[nH]ncc3c2)n1` [PCM-0215769], 32.4%.

For the compound `CN(CC(=O)N(Cc1ccc(C2CCCCC2)cc1)c1ccc(C(=O)O)c(O)c1)S(=O)(=O)c1c(F)c(F)c(F)c(F)c1F` [PCM-0215770], the inhibition at 10 µM stood at 82.6%.

As to `Cc1cc(O)c(-c2ccc([C@@H](C)CN)cc2)c2c1[nH]c(=O)c1sccc12` [PCM-0215772], the inhibition at 10 µM was determined as 70.3%. In the case of `C[C@H](CN(C)C)Oc1nc(Nc2cc3cccc(Cl)c3cn2)cnc1C#N` [PCM-0215773] it was -3.4%; in that of `CC(Nc1nc(N2CCCC2)nc2ccccc12)c1ccccc1` (stereo not drawn) [PCM-0215774], -23.2%; in that of `Cc1c(CN2CCC(Nc3ncnc4sc(CC(F)(F)F)cc34)CC2)ccc2[nH]c(C#N)cc12` [PCM-0215775], 32.4%. In the case of `Cc1ccc(C=NNC(=O)c2ccccc2Oc2ccccc2)o1` [PCM-0215777] it was -16.2%; in that of `CC(C)(NS(=O)(=O)c1ccc2c(Cl)cnc(N=C(N)N)c2c1)C(=O)O` [PCM-0215778], -11.6%; in that of `CN(CC(=O)N(Cc1ccc(C2CCCCC2)cc1)c1ccc(C(=O)NO)cc1)S(=O)(=O)c1c(F)c(F)c(F)c(F)c1F` [PCM-0215779], 19.3%. In the case of `CC(C)(C)c1cc(NC(=O)Nc2ccc(Oc3ccnc4[nH]c(=O)cnc34)cc2F)n(-c2ccccc2)n1` [PCM-0215780] it was 61.4%. Consider `c1ccc(CNCc2ccc(CN3CCCNCCNCCCNCC3)cc2)nc1` [PCM-0215781], for which the inhibition at 10 µM was -2.6%. On to `CC(C)c1c2cc(-c3ccnc(NC4CCC(NC5CCOCC5)CC4)n3)ccc2nn1C` (stereo not drawn) [PCM-0215782], for which the inhibition at 10 µM stood at 3.4%.

Consider `CC(C)C(C(=O)O)N1C(=O)/C(=C\c2ccc(Br)cc2)SC1=S` (stereo not drawn) [PCM-0215783], for which the inhibition at 10 µM is -3.1%. As to `Cc1nn(C)c2nc(NNC(=O)Nc3cc(Cl)nc(Cl)c3)cc(C(C)C)c12` [PCM-0215784], the inhibition at 10 µM came out at 54.8%. With `Cc1nc2cccc(N)c2c(=O)n1C1CCC(=O)NC1=O` (stereo not drawn) [PCM-0215785] the figure was 2.3%; with `CCCCCCCCCCCCCC(=S)NCCCC[C@H](NC(=O)OCc1ccccc1)C(=O)Nc1ccccc1` [PCM-0215787], -6.2%. Regarding `C=CC(=O)N1CC[C@@H](Oc2nc(Nc3ccc(N4CCC(N5CCN(C)CC5)CC4)cc3)c(C(N)=O)nc2CC)C1` [PCM-0215788], the inhibition at 10 µM was found to be 91%.

For `Fc1ccc(-c2c3cccc(C(F)(F)F)c3nn2Cc2ccc(F)cc2Cl)cc1` [PCM-0215789], the inhibition at 10 µM is 30.1%. In the case of `CC(C)c1cnn2c(NCc3ccccc3-n3cccn3)nc(OC3CCCNC3)nc12` (stereo not drawn) [PCM-0215792], the inhibition at 10 µM is -2.8%.

On to `CC(C(=O)Nc1cccc(N=Cc2c(O)ccc3ccccc23)c1)c1ccccc1` (stereo not drawn) [PCM-0215794], for which the inhibition at 10 µM is 21.6%.

Take `C=C1CCC[C@]2(C)C=C3OC(=O)C(C)=C3C[C@@H]12` [PCM-0215796]: the inhibition at 10 µM was -4.1%. With `O=c1[nH]ccc2c(S(=O)(=O)N3CCCNCC3)cccc12` [PCM-0215797] the figure was -2.8%; with `OC1CCC(Oc2cccc3cnc(Nc4ccc5nc[nH]c5c4)nc23)CC1` (stereo not drawn) [PCM-0215798], 66.2%; with `O=c1[nH]nc2c3c(cccc13)NC(CN1Cc3ccccc3C1)=N2` [PCM-0215799], 0.8%.

Turning to `Cc1c(C)c(NCC(=O)N(C)C2CCN(Cc3ccc(C(N)=O)cc3)CC2)c(C)c(C)c1N` [PCM-0215800], the inhibition at 10 µM is 12.4%. With `N=C1S/C(=C\c2ccc(-c3ccc4c(c3)C(=O)NC4=O)o2)C(=O)N1c1ccc(Br)cc1` [PCM-0215801] the figure was 27%.

Take `CC(C)Oc1ccc(-c2nn([C@@H](C)c3oc4ccc(F)cc4c(=O)c3-c3cccc(F)c3)c3ncnc(N)c23)cc1F` [PCM-0215802]: the inhibition at 10 µM was -2.1%. With `COc1ccc(C(NC(=O)c2cnc(-c3cccnn3)[nH]c2=O)c2ccc(OC)cc2)cc1` [PCM-0215803] the figure was 18.5%; with `Cc1cc(C(=O)Nc2nc3cccc(Cl)c3n2[C@@H]2CCCCN(C(=O)/C=C/CN(C)C)C2)ccn1` [PCM-0215804], 73.8%. In the case of `Cc1cc(O)c(-c2ccc([C@@H](C)CN(C)C)cc2)c2c1[nH]c(=O)c1sccc12` [PCM-0215805] it was 38.6%; in that of `O=[N+]([O-])c1ccc(Nc2ccccc2-c2ccccc2)c2nonc12` [PCM-0215806], 74.1%; in that of `C=CC(=O)N[C@H]1CCOC[C@H]1Nc1ncc2cc(-c3c(Cl)c(OC)cc(OC)c3Cl)ccc2n1` [PCM-0215807], 22.1%.

Turning to `NS(=O)(=O)c1ccc(NC(=S)N2CCN(C/C=C/c3ccccc3)CC2)cc1` [PCM-0215808], the inhibition at 10 µM was determined as 2.3%. With `NC(=O)c1cc(F)cc2c1C(=O)N(C1CCN(C3CCC(F)(F)CC3)CC1)C2` [PCM-0215809] the figure was 4.6%; with `CC1=C(C(=O)Nc2ccc3[nH]ncc3c2)C(c2ccc(F)cc2)NC(=O)N1` (stereo not drawn) [PCM-0215810], 19.3%; with `CONC(=O)c1ccccc1Nc1cc(Nc2cc(C)nn2C(C)C)ncc1Cl` [PCM-0215811], -10.3%. Take `COCCCc1sc(-c2ccccc2)nc1C(=O)Nc1ccccc1-c1nc2cc(CN3CCCC3)cnc2s1` [PCM-0215812]: the inhibition at 10 µM came to 57.9%.

Turning to `CS(=O)(=O)c1ccc(-c2cnc(NCc3ccco3)n3cnnc23)cc1` [PCM-0215813], the inhibition at 10 µM is -6.9%. `Cc1cccc(Nc2nc(N[C@@H]3CCCC[C@@H]3N)ncc2C(N)=O)c1` [PCM-0215814]: the inhibition at 10 µM is 82.8%. With `COc1ccc2c(c1)[C@]1(C[C@H]1c1ccc3c(/C=C/c4ccc(CN5C[C@@H](C)O[C@@H](C)C5)cc4)n[nH]c3c1)C(=O)N2` [PCM-0215815] the figure was 86.9%.
